Test results taken from patent publication US20230159527A1, “COMPOUNDS AS BCL-2 INHIBITORS” (Fochon Pharmaceuticals, Ltd., priority 2020, published 2023).

Experiments:
Format in all cases: cell-based
RS4;11-BCL-2 G101V cells = test: Cell proliferation assay, engineered RS4;11 cells stably overexpressing BCL-2 G101V (MTS, 168 h); details: Homo sapiens, RS4-11, 168 h, read-out: RS4, 11 BCL2- G101V
Description: MTS testing kit was purchased from Promega (Madison, Wis., USA). The RPMI-1640, Fetal bovine serum and Penicillin-Streptomycin were purchased from BI (Biological Industries, Beit Haemek, Israel). Puromycin was purchased from Beyotime (shanghai, China). Dimethyl sulfoxide (DMSO) was purchased from Sigma (St. Louis, Mo., USA). RS4;1l-BCL-2 G101V and RS4;11-BCL-2 F104L cells were cultured in RPM11640 supplemented with 1 ug/mL puromycin, 100 U/mL Penicillin-Streptomycin and 10% FBS.
To investigate whether a compound is able to inhibit the activity of BCL-2 mutation in cells, a mechanism-based assay using engineered cell lines stably overexpressing BCL-2 mutation ([…] and […]) was developed. In this assay, the inhibition of BCL-2 mutation was reflected by the inhibition of cell proliferation of RS4;11-BCL-2 G101V and RS4;11-BCL-2 F104L cells. Cells were plated into 96-well plates at optimized cell density (RS4;11-BCL-2 G101V: 5000 cells/well; RS4;11-BCL-2 F104L: 5000 cells/well). Plates were incubated at 37° C., with 5% CO2 for 4 h. Compounds were serially diluted to the final-concentrations of 10000, 3333.3, 1111.1, 370.4, 123.5, 41.2, 13.7, 4.6 and 1.4 nM and added to the plates. Plates were incubated at 37° C., with 5% CO2 for 168 h. 20 μl MTS was added into each well and the plates were incubated at 37° C., with 5% CO2 exactly for 2 h. The absorbance was measured by a microplate reader at 490 nm. IC50 values were calculated using GraphPad Prism 5.0 software.

RS4;11-BCL-2 F104L cells = test: Cell proliferation assay, engineered RS4;11 cells stably overexpressing BCL-2 F104L (MTS, 168 h); details: Homo sapiens, read-out: RS4, 11 BCL2-F104L
Outline: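 Proliferation read-out: MTS for exactly 2 h, then absorbance at 490 nm, with IC50 derived from the fit. Before this, engineered RS4;11 lines (BCL-2 G101V, F104L; 5000 cells/well) were exposed 168 h at 37 °C to serially diluted compound, final 1.4–10000 nM.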

Toledo cells = test: Cell proliferation assay, Toledo cells (MTS, 72 h); details: Homo sapiens, Toledo cells, MTS, read-out: Toledo IC50
Outline: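 Toledo cells (30000/well, RPMI-1640 with 10% FBS) were preincubated for 4 h. They were then exposed to nine compound concentrations from 10000 to 1.5 nM for 72 h at 37 °C, 5% CO2. MTS was added for 2 h and absorbance read at 490 nm to give IC50.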

Structure (SMILES)	IC50 (RS4;11-BCL-2 G101V cells) [nM]	IC50 (RS4;11-BCL-2 F104L cells) [nM]	IC50 (Toledo cells) [nM]
CCOc1nc2[nH]ccc2cc1Oc1cc(N2CCC3(CC2)CC(N2CCC[C@H]2c2ccccc2C(C)C)C3)ccc1C(=O)NS(=O)(=O)c1cc2c(c([N+](=O)[O-])c1)N[C@@H]([C@H]1CC[C@](C)(O)CC1)CO2 (single isomer, unassigned) [Example D-65, 2-((6-ethoxy-1H-pyrrolo[2,3-b]pyridin-5-yl)oxy)-N-(((5)-3-((1r,4S)-4-hydroxy-4-methylcyclohexyl)-5-nitro-3,4-dihydro-2H-benzo[b] [1,4]oxazin-7-yl)sulfonyl)-4-(2-((R or S)-2-(2-isopropylphenyl)pyrrolidin-1-yl)-7-azaspiro[3.5]nonan-7-yl)benzamide]	1	20	1
COC(C)COc1nc2[nH]cc(F)c2cc1Oc1cc(N2CCC3(CC2)CC(N2CCC[C@H]2c2ccccc2C(C)C)C3)ccc1C(=O)NS(=O)(=O)c1cc2c(c([N+](=O)[O-])c1)N[C@@H]([C@H]1CC[C@](C)(O)CC1)CO2 (single isomer, unassigned) [Example D-243, 2-((3-fluoro-6-(2-methoxypropoxy)-1H-pyrrolo[2,3-b]pyridin-5-yl)oxy)-N-(((S)-3-((1r,4S)-4-hydroxy-4-methylcyclohexyl)-5-nitro-3,4-dihydro-2H-benzo[b][1,4]oxazin-7-yl)sulfonyl)-4-(2-((R or S)-2-(2-isopropylphenyl)pyrrolidin-1-yl)-7-azaspiro[3.5]nonan-7-yl)benzamide]	10	1	
COC(C)COc1nc2[nH]cc(F)c2cc1Oc1cc(N2CCC3(CC2)CN([C@H]2CCC[C@H]2c2ccccc2C(C)C)C3)ccc1C(=O)NS(=O)(=O)c1cnc(NC[C@H]2CC[C@](C)(O)CC2)c([N+](=O)[O-])c1 (single isomer, unassigned) [Example A-155, 2-((3-fluoro-6-(2-methoxypropoxy)-1H-pyrrolo[2,3-b]pyridin-5-yl)oxy)-N-((6-((((1r,4r)-4-hydroxy-4-methyl-cyclohexyl)methyl)amino)-5-nitro-pyridin-3-yl)sulfonyl)-4-(2-((1S,2S or 1R,2R)-2-(2-isopropylphenyl)cyclo-pentyl)-2,7-diazaspiro[3.5]nonan-7-yl) benzamide]	13	1	
COC(C)COc1nc2[nH]cc(F)c2cc1Oc1cc(N2CCC3(CC2)CN([C@H]2CCC[C@H]2c2ccccc2C(C)C)C3)ccc1C(=O)NS(=O)(=O)c1cc2c(c([N+](=O)[O-])c1)N[C@@H]([C@H]1CC[C@](C)(O)CC1)CO2 (single isomer, unassigned) [Example D-241, 2-((3-fluoro-6-(2-methoxypropoxy)-1H-pyrrolo[2,3-b]pyridin-5-yl)oxy)-N-(((S)-3-((1r,4S)-4-hydroxy-4-methylcyclohexyl)-5-nitro-3,4-dihydro-2H-benzo[b][1,4]oxazin-7-yl)sulfonyl)-4-(2-((1S,2S or 1R,2R)-2-(2-isopropylphenyl)cyclopentyl)-2,7-diazaspiro[3.5]nonan-7-yl)benzamide]	4	1	
CC(C)c1ccccc1[C@@H]1CCCN1C1CC2(CCN(c3ccc(C(=O)NS(=O)(=O)c4cc5c(c([N+](=O)[O-])c4)N[C@@H]([C@H]4CC[C@](C)(O)CC4)CO5)c(Oc4cc5cc[nH]c5nc4OCCN4CCOCC4)c3)CC2)C1 (single isomer, unassigned) [Example D-63, N-(((S)-3-((1r,4S)-4-hydroxy-4-methylcyclohexyl)-5-nitro-3,4-dihydro-2H-benzo[b][1,4]oxazin-7-yl)sulfonyl)-4-(2-((R or S)-2-(2-isopropylphenyl)pyrrolidin-1-yl)-7-azaspiro[3.5]nonan-7-yl)-2-((6-(2-morpholinoethoxy)-1H-pyrrolo[2,3-b]pyridin-5-yl)oxy) benzamide]	1		1

More lines, main results first:

IC50 (RS4;11-BCL-2 G101V cells) [nM]	IC50 (RS4;11-BCL-2 F104L cells) [nM]	Structure (SMILES)	IC50 (Toledo cells) [nM]
1	1	CC(C)c1ccccc1[C@@H]1CCC[C@@H]1N1CC2(CCN(c3ccc(C(=O)NS(=O)(=O)c4cnc(NC[C@H]5CC[C@](C)(O)CC5)c([N+](=O)[O-])c4)c(Oc4cnc5[nH]cc(F)c5c4)c3)CC2)C1 (single isomer, unassigned) [Example A-149, 2-((3-fluoro-1H-pyrrolo[2,3-b]pyridin-5-yl)oxy)-N-((6-((((1r,4r)-4-hydroxy-4-methylcyclohexyl)methyl)amino)-5-nitropyridin-3-yl)sulfonyl)-4-(2-((1S,2S or 1R,2R)-2-(2-isopropylphenyl)cyclo-petyl)-2,7-diazaspiro[3.5]nonan-7-yl) benzamide]	1
1	1	CC(C)c1ccccc1[C@@H]1CCCN1C1CC2(CCN(c3ccc(C(=O)NS(=O)(=O)c4cc5c(c([N+](=O)[O-])c4)N[C@@H]([C@H]4CC[C@](C)(O)CC4)CO5)c(Oc4cc5cc[nH]c5nc4OC[C@@H]4CCCN4C)c3)CC2)C1 (single isomer, unassigned) [Example D-131, N-(((S)-3-((1r,4S)-4-hydroxy-4-methylcyclohexyl)-5-nitro-3,4-dihydro-2H-benzo[b][1,4]oxazin-7-yl)sulfonyl)-4-(2-((R or S)-2-(2-isopropylphenyl)pyrrolidin-1-yl)-7-azaspiro[3.5]nonan-7-yl)-2-((6-(((S)-1-methylpyrrolidin-2-yl)methoxy)-1H-pyrrolo[2,3-b]pyridin-5-yl)oxy)benzamide]	1
1	1	CC(C)c1ccccc1[C@@H]1CCCN1C1CC2(CCN(c3ccc(C(=O)NS(=O)(=O)c4cc5c(c([N+](=O)[O-])c4)N[C@@H]([C@H]4CC[C@](C)(O)CC4)CO5)c(Oc4cc5cc[nH]c5nc4OC[C@H]4COCCN4C)c3)CC2)C1 (single isomer, unassigned) [Example D-134, N-(((S)-3-((1r,4S)-4-hydroxy-4-methylcyclohexyl)-5-nitro-3,4-dihydro-2H-benzo[b][1,4]oxazin-7-yl)sulfonyl)-4-(2-((R or S)-2-(2-isopropylphenyl)pyrrolidin-1-yl)-7-azaspiro[3.5]nonan-7-yl)-2-((6-(((7)-4-methylmorpholin-3-yl)methoxy)-1H-pyrrolo[2,3-b]pyridin-5-yl)oxy)benzamide]	1
14	4	COC(C)COc1nc2[nH]cc(F)c2cc1Oc1cc(N2CCC3(CC2)CN([C@H]2CCC[C@H]2c2ccccc2C(C)C)C3)ccc1C(=O)NS(=O)(=O)c1ccc(NC[C@H]2CC[C@](C)(O)CC2)c([N+](=O)[O-])c1 (single isomer, unassigned) [Example D-233, 2-((3-fluoro-6-(2-methoxypropoxy)-1H-pyrrolo[2,3-b]pyridin-5-yl)oxy)-N-((4-(((1r,4r)-4-hydroxy-4-methylcyclohexyl)methyl)amino)-3-nitrophenyl)sulfonyl)-4-(2-((1S,2S or 1R,2R)-2-(2-isopropylphenyl)cyclopentyl)-2,7-diazaspiro[3.5]nonan-7-yl)benzamide]	
12		COc1nc2[nH]ccc2cc1Oc1cc(N2CCC3(CC2)CN([C@H]2CCC[C@H]2c2ccccc2C(C)C)C3)ccc1C(=O)NS(=O)(=O)c1cc2c(c([N+](=O)[O-])c1)N[C@@H]([C@H]1CC[C@](C)(O)CC1)CO2 (single isomer, unassigned) [Example D-97, N-(((S)-3-((1r,4S)-4-hydroxy-4-methylcyclohexyl)-5-nitro-3,4-dihydro-2H-benzo[b][1,4]oxazin-7-yl)sulfonyl)-4-(2-((1S,2S or 1R,2R)-2-(2-isopropylphenyl)cyclopentyl)-2,7-diazaspiro[3.5]nonan-7-yl)-2-((6-methoxy-1H-pyrrolo [2,3-b]pyridin-5-yl)oxy)benzamide]	1
